Data reported in ChEMBL document CHEMBL1201862, “PubChem BioAssay data set” (2004).
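Five concentrations, 48 hours, 96-well plates. The concentration for 50% growth inhibition is given as GI50.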 Active and inactive are the calls of the source. Rule as the data show it: active = GI50 up to about 1.1 µM and inactive = higher.

Legend:
Assay in all cases: growth of human tumour cells (NCI), 48 h
SF-539 = system: SF-539
MDA-N = system: MDA-N
MDA-MB-435 = system: MDA-MB-435
SK-MEL-2 = system: SK-MEL-2
NCI-H226 = system: NCI-H226
DU-145 = system: DU-145
PC-3 = system: PC-3
HCT-116 = system: HCT-116
UACC-257 = system: UACC-257
HL-60 = system: HL-60
SF-295 = system: SF-295
HOP-62 = system: HOP-62
OVCAR-8 = system: OVCAR-8
U-251 = system: U-251
COLO 205 = system: COLO 205
RXF 393 = system: RXF 393
SW-620 = system: SW-620
SR = system: SR

Row | SMILES | GI50 (SF-539) | GI50 (MDA-N) | GI50 (MDA-MB-435) | GI50 (SK-MEL-2) | GI50 (NCI-H226) | GI50 (DU-145) | GI50 (PC-3) | GI50 (HCT-116) | GI50 (UACC-257) | GI50 (HL-60) | GI50 (SF-295) | GI50 (HOP-62) | GI50 (OVCAR-8) | GI50 (U-251) | GI50 (COLO 205) | GI50 (RXF 393) | GI50 (SW-620) | GI50 (SR)
1 | O=c1cc(N2CCCC2)[nH]c(=O)n1-c1ccc(Cl)cc1 | > 100 µM (inactive) | > 100 µM (inactive) | > 100 µM (inactive) | > 100 µM (inactive) | > 100 µM (inactive) | > 100 µM (inactive) | > 100 µM (inactive) | > 100 µM (inactive) | > 100 µM (inactive) | > 100 µM (inactive) | > 100 µM (inactive) | > 100 µM (inactive) | > 100 µM (inactive) | > 100 µM (inactive) | > 100 µM (inactive) | > 100 µM (inactive) | > 100 µM (inactive) | 
2 | CCn1c(CCCc2nc3c(=O)n(C)c(=O)n(C)c3[nH]2)nc2c1c(=O)n(C)c(=O)n2C | 14.9 µM (inactive) | > 100 µM (inactive) | > 100 µM (inactive) |  | 14.8 µM (inactive) | > 100 µM (inactive) | > 100 µM (inactive) | > 100 µM (inactive) | > 100 µM (inactive) | 77.8 µM (inactive) | > 100 µM (inactive) | > 100 µM (inactive) | > 100 µM (inactive) | > 100 µM (inactive) | 12.1 µM (inactive) | > 100 µM (inactive) | > 100 µM (inactive) | 
3 | CCN1CC2=C(N=c3s/c(=C\c4ccc(Cl)cc4)c(=O)n3C2c2ccc(Cl)cc2)/C(=C/c2ccc(Cl)cc2)C1 (centres undefined) |  | > 100 µM (inactive) | > 100 µM (inactive) | 26.6 µM (inactive) | 37 µM (inactive) | > 100 µM (inactive) | > 100 µM (inactive) | 44.1 µM (inactive) | > 100 µM (inactive) | > 100 µM (inactive) | 33 µM (inactive) | 14.7 µM (inactive) | > 100 µM (inactive) | 20.8 µM (inactive) | > 100 µM (inactive) | 2.47 µM (inactive) | > 100 µM (inactive) | 
4 | O=c1ccc(=O)c2c1c1[nH]c3ccccc3c1c1c(=O)c3ccccc3c(=O)c21 | > 10 µM (inactive) |  | > 10 µM (inactive) | > 10 µM (inactive) | > 10 µM (inactive) | > 10 µM (inactive) | > 10 µM (inactive) | > 10 µM (inactive) | > 10 µM (inactive) | 3.85 µM (inactive) | > 10 µM (inactive) | > 10 µM (inactive) | > 10 µM (inactive) | > 10 µM (inactive) | > 10 µM (inactive) | > 10 µM (inactive) | 8.22 µM (inactive) | > 10 µM (inactive)
5 | COc1cc2c(cc1C)NC(=O)/C2=C\c1ccncc1 | 2.82 µM (inactive) |  | 4.14 µM (inactive) | 2.97 µM (inactive) |  | 3.09 µM (inactive) | 6.55 µM (inactive) | 2.34 µM (inactive) | 5.19 µM (inactive) | 3.73 µM (inactive) | 4.99 µM (inactive) | 6.97 µM (inactive) | 2.52 µM (inactive) | 4.39 µM (inactive) | 7.19 µM (inactive) | 3.76 µM (inactive) | 4.49 µM (inactive) | 2.61 µM (inactive)
6 | CCCCCCCCCCCCCCCCCCNc1ccn(C2OC(CO)C(OP(=O)(O)OCC(O)COP(=O)(O)OCC3OC(n4cc(F)c(NCCCCCCCCCCCCCCCCCC)nc4=O)CC3O)C2O)c(=O)n1 (centres undefined) | > 50 µM (inactive) | > 50 µM (inactive) | > 50 µM (inactive) | > 50 µM (inactive) | > 50 µM (inactive) | > 50 µM (inactive) | > 50 µM (inactive) | > 50 µM (inactive) | > 50 µM (inactive) | > 50 µM (inactive) | > 50 µM (inactive) | > 50 µM (inactive) | > 50 µM (inactive) | > 50 µM (inactive) | > 50 µM (inactive) |  | > 50 µM (inactive) | 
7 | C/C=C/[C@@]1(OC(=O)c2ccccc2)C[C@@H]2CCCC[C@@H]21 | 17.5 µM (inactive) | 17.4 µM (inactive) |  | 13.2 µM (inactive) | 16.5 µM (inactive) | 17.5 µM (inactive) | 20 µM (inactive) | 16 µM (inactive) | 18.3 µM (inactive) | 14 µM (inactive) | 18.6 µM (inactive) | 15.5 µM (inactive) | 18.5 µM (inactive) | 16.3 µM (inactive) |  |  | 23 µM (inactive) | 18.1 µM (inactive)
8 | Cn1c2ccccc2c(=O)c2cccc(C(=O)NCC(=O)O)c21 | > 100 µM (inactive) | > 100 µM (inactive) | > 100 µM (inactive) | > 100 µM (inactive) | 85.9 µM (inactive) | > 100 µM (inactive) | > 100 µM (inactive) | > 100 µM (inactive) | > 100 µM (inactive) |  | > 100 µM (inactive) | > 100 µM (inactive) | > 100 µM (inactive) | > 100 µM (inactive) | > 100 µM (inactive) |  | > 100 µM (inactive) | > 100 µM (inactive)
9 | CCOC(=O)C1C(c2ccco2)C2(C#N)C(=N)OC1(C)C2(C#N)C#N (centres undefined) | > 100 µM (inactive) | > 100 µM (inactive) | > 100 µM (inactive) | > 100 µM (inactive) | > 100 µM (inactive) | > 100 µM (inactive) | > 100 µM (inactive) | > 100 µM (inactive) | > 100 µM (inactive) | > 10 µM (inactive) | > 100 µM (inactive) |  | > 100 µM (inactive) | > 100 µM (inactive) | > 100 µM (inactive) | > 100 µM (inactive) | > 100 µM (inactive) | 
10 | Cc1ccc2nc(N/N=C/c3sccc3C)cc(C)c2c1 |  | > 100 µM (inactive) | > 100 µM (inactive) | > 100 µM (inactive) | > 100 µM (inactive) | > 100 µM (inactive) | 35 µM (inactive) | 42.6 µM (inactive) | > 100 µM (inactive) | 28.4 µM (inactive) |  | 29.3 µM (inactive) | > 100 µM (inactive) | 92.7 µM (inactive) | > 100 µM (inactive) | 61.8 µM (inactive) | > 100 µM (inactive) | 
11 | COc1cc(C2SC(=N)Nc3c2c(C)nn3C(=O)Cc2ccccc2)cc(OC)c1OC (centres undefined) | > 100 µM (inactive) | > 100 µM (inactive) | > 100 µM (inactive) |  | > 100 µM (inactive) | > 100 µM (inactive) | > 100 µM (inactive) | > 100 µM (inactive) | > 100 µM (inactive) | > 100 µM (inactive) | > 100 µM (inactive) | > 100 µM (inactive) | > 100 µM (inactive) |  | > 100 µM (inactive) |  | > 100 µM (inactive) | > 100 µM (inactive)
12 | NNc1ncnc2cccc(Cl)c12 | > 100 µM (inactive) | > 100 µM (inactive) |  |  | > 100 µM (inactive) | > 100 µM (inactive) | > 100 µM (inactive) | > 100 µM (inactive) | > 100 µM (inactive) | > 100 µM (inactive) | > 100 µM (inactive) | > 100 µM (inactive) | > 100 µM (inactive) | > 100 µM (inactive) | > 100 µM (inactive) | > 100 µM (inactive) | > 100 µM (inactive) | > 100 µM (inactive)
13 | NS(=O)(=O)c1nnc(NSc2ccc([N+](=O)[O-])cc2)s1 |  | > 100 µM (inactive) | > 100 µM (inactive) | > 100 µM (inactive) | > 100 µM (inactive) | > 100 µM (inactive) |  | > 100 µM (inactive) | > 100 µM (inactive) |  | > 100 µM (inactive) | > 100 µM (inactive) | > 100 µM (inactive) | > 100 µM (inactive) | > 100 µM (inactive) | > 100 µM (inactive) | > 100 µM (inactive) | 59.6 µM (inactive)
14 | CC12CCC3[C@@H](CC3(C)C)C(O)(CCC1=O)C2 (some centres undefined) | > 100 µM (inactive) | > 100 µM (inactive) | > 100 µM (inactive) | > 100 µM (inactive) | > 100 µM (inactive) | > 100 µM (inactive) | > 100 µM (inactive) | > 100 µM (inactive) | > 100 µM (inactive) | > 100 µM (inactive) | > 100 µM (inactive) | > 100 µM (inactive) | > 100 µM (inactive) | > 100 µM (inactive) | > 100 µM (inactive) |  | > 100 µM (inactive) | > 100 µM (inactive)
15 | CC(C)=CCc1c2c(c3occ(-c4ccc(O)cc4)c(=O)c3c1O)CC(C(C)(C)O)O2 (centres undefined) [SENEGALENSIN] | 20.1 µM (inactive) | 21.4 µM (inactive) | 16.6 µM (inactive) | 14.6 µM (inactive) | 20.3 µM (inactive) | 15.5 µM (inactive) | 13.8 µM (inactive) | 16.7 µM (inactive) | 15.7 µM (inactive) | 12.4 µM (inactive) | 12.1 µM (inactive) | 18.7 µM (inactive) | 17 µM (inactive) | 13.2 µM (inactive) | 14.6 µM (inactive) | 13.6 µM (inactive) | 21.7 µM (inactive) | 
16 | CCCC(=O)OCC(COC(=O)CCC)OC(=O)CCC [TRIBUTYRIN] | 62.8 µM (inactive) | 65.2 µM (inactive) | 85.7 µM (inactive) | 24.2 µM (inactive) | > 100 µM (inactive) | 29.9 µM (inactive) | 99.3 µM (inactive) | 48.8 µM (inactive) | 42.2 µM (inactive) | 33.3 µM (inactive) | > 100 µM (inactive) | > 100 µM (inactive) | 62.4 µM (inactive) | 53 µM (inactive) | 55.6 µM (inactive) | > 100 µM (inactive) | > 100 µM (inactive) | 
17 | Nc1nc(N)c2cc(Sc3cccc(C(F)(F)F)c3)ccc2n1 [WR-159412] | 3.17 µM (inactive) | 0.371 µM (active) | 0.662 µM (active) | 2.23 µM (inactive) |  | 0.982 µM (active) |  | 0.237 µM (active) |  | 1.62 µM (inactive) | 0.656 µM (active) | 2.12 µM (inactive) |  | 0.771 µM (active) | 1.21 µM (inactive) |  |  | 0.843 µM (active)
